Among the test systems are SN12C; SF-268; A549; SK-MEL-2; UACC-257; NCI-H522; K562; HCC 2998; HT-29; EKVX; UO-31; CCRF-CEM; NCI-H23; LOX IMVI; HCT-15; SK-MEL-28; SNB-19; NCI-H460; SK-MEL-5; KM12.
What all share (test): inhibition of tumour cell growth, NCI panel, 48 h

The text below walks through data of ChEMBL document CHEMBL1201862, “PubChem BioAssay data set” (2004).

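Grown in 96-well plates, cells were treated for 48 hours with each compound at five concentrations. Insufficient inhibition: endpoint recorded as highest concentration tested. At the GI50, growth is halved.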 Active and inactive are the calls of the source. Rule as the data show it: active = GI50 up to about 1.1 µM and inactive = higher.

In the case of `N#CC1(C#N)C2C=CC(C3CCC=C32)C1(C#N)C#N` (stereo not given), the GI50 in the assay on SN12C was > 10 µM (inactive); with SF-268, > 10 µM (inactive); in the assay with A549, > 10 µM (inactive); in the assay on SK-MEL-2, > 10 µM (inactive); with UACC-257 it was > 10 µM (inactive); with NCI-H522, 2.96 µM (inactive). Further, the GI50 in the assay with K562 is 3.37 µM (inactive); in the assay with HCC 2998, > 10 µM (inactive); in the assay with HT-29 it was > 10 µM (inactive); in the assay with EKVX it was > 10 µM (inactive); with UO-31, > 4.32 µM (inactive); with CCRF-CEM, 1.91 µM (inactive). The GI50 in the assay on NCI-H23 is > 10 µM (inactive); with LOX IMVI, > 10 µM (inactive); in the assay on HCT-15, over 10 µM; in the assay on SK-MEL-28 it was > 10 µM (inactive); with SNB-19, > 10 µM (inactive); in the assay on NCI-H460 it was > 10 µM (inactive). Besides, the GI50 in the assay on SK-MEL-5 and in the assay on KM12 was > 10 µM (inactive) each time.

Take `CN(C)c1n/c(=N/c2ccc(/N=c3\nc(N(C)C)ss3)cc2)ss1`: the GI50 with SN12C was 40.3 µM (inactive); in the assay on SF-268 it was 37.9 µM (inactive); with A549, 37.9 µM (inactive); with SK-MEL-2 it was 69.5 µM (inactive); with UACC-257, 27.5 µM (inactive); in the assay on NCI-H522 it was 11.5 µM (inactive). Also, the GI50 was 11.7 µM (inactive) with K562; > 83 µM (inactive) with HCC 2998; 21.9 µM (inactive) in the assay on HT-29; > 74.8 µM (inactive) in the assay on EKVX; 44 µM (inactive) in the assay on UO-31; 4.99 µM (inactive) in the assay on CCRF-CEM. For the same compound, the GI50 with NCI-H23 is 12.4 µM (inactive); in the assay on LOX IMVI it was > 44.8 µM (inactive); with HCT-15, 27 µM; with SK-MEL-28, 16.8 µM (inactive); with SNB-19 it was 32.4 µM (inactive); with NCI-H460, 30.2 µM (inactive). The figures for the GI50 in the assay on SK-MEL-5 and in the assay with KM12 were 22.4 µM (inactive) and 47.3 µM (inactive), respectively.

Consider `Cc1c2ccncc2cc2c1[nH]c1ccccc12`, for which the GI50 in the assay on SN12C was 1.58 µM (inactive); in the assay on SF-268, 8.22 µM (inactive); in the assay on A549 it was 3.22 µM (inactive); in the assay on SK-MEL-2 it was 7.43 µM (inactive); with UACC-257, 5.55 µM (inactive); in the assay on NCI-H522, 3.92 µM (inactive). In addition, the GI50 with K562 was 3.48 µM (inactive); in the assay with HCC 2998, 5.04 µM (inactive); with HT-29, 4.42 µM (inactive); in the assay with EKVX it was 4.4 µM (inactive); with UO-31, 3.45 µM (inactive); with CCRF-CEM, 3.78 µM (inactive). Besides, the GI50 is 4.08 µM (inactive) in the assay with NCI-H23; 2.33 µM (inactive) in the assay with LOX IMVI; 4.2 µM in the assay on HCT-15; 3.85 µM (inactive) in the assay on SK-MEL-28; 5.71 µM (inactive) with SNB-19; 1.77 µM (inactive) in the assay with NCI-H460. For the same compound, the figures for the GI50 in the assay with SK-MEL-5 and in the assay on KM12 were 3.97 µM (inactive) and 4.56 µM (inactive), respectively.

In the case of `COC1OC(=O)[C@H]2O[N+]([O-])=C(C)[C@@H]12` (stereo not given in full), the GI50 in the assay with SN12C, in the assay on SF-268, in the assay on A549, with SK-MEL-2, in the assay on UACC-257 and in the assay on NCI-H522 was > 100 µM (inactive) each time. Besides, the GI50 with K562, in the assay on HCC 2998, with HT-29, in the assay with EKVX, in the assay with UO-31 and in the assay with CCRF-CEM was > 100 µM (inactive) throughout. Further, the GI50 in the assay on NCI-H23 was > 100 µM (inactive); with LOX IMVI, > 100 µM (inactive); in the assay on HCT-15, over 100 µM; in the assay on SK-MEL-28, > 100 µM (inactive); with SNB-19 it was > 100 µM (inactive); in the assay on NCI-H460 it was > 100 µM (inactive). In addition, the GI50 in the assay with SK-MEL-5 and in the assay on KM12 was > 100 µM (inactive) throughout.
